Assay results reported in ChEMBL document CHEMBL1201862, “PubChem BioAssay data set” (2004).
Active and inactive are the calls of the source.

Columns and labels:
Estrogen receptor beta [1] = target: T1, Estrogen receptor beta (Homo sapiens, UniProt Q92731);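 further: recombinant ER-beta bound to coactivator SRC1 peptide in presence of estradiol agonist; inhibitors block coactivator peptide binding and lower the FRET signal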
Bcl-2-like protein 10 = target: T2, Bcl-2-like protein 10 (Homo sapiens, UniProt Q9HD36); test: Bcl-B/TR3 peptide binding disruption – biochemical, fluorescence polarization, FITC-TR3 peptide, selectivity assay for Bfl-1 inhibitor project, primary screen (AID 748);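 further: fluorescence polarization from a fluorescein-labelled TR3 peptide binding purified Bcl-B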
T2 sequence (Q9HD36 whole entry): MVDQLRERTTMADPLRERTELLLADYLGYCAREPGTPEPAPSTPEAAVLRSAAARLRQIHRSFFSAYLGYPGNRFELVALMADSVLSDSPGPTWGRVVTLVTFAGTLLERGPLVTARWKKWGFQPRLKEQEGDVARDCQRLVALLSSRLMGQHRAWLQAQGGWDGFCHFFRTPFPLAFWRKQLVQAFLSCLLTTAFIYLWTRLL

Estrogen receptor beta [2] = target: T1, Estrogen receptor beta; test: blockers of SRC-3 recruitment to ERβ – biochemical, ELISA, streptavidin-HRP readout, orthogonal assay, confirmation (AID 1060)
[3] = Luminescence Cell-Based Dose Response HTS to Identify Inhibitors of 5'UTR Stem-Loop Driven Prion Protein mRNA Translation in H4 Neuroglioblastoma Cells. [Related pubchem assays: 1827 (Project Summary), 1813 (Primary HTS)]; type: functional
[4] = alpha-synuclein stem-loop luciferase translation blockers – H4 neuroglioma cells, luminescence, confirmation (AID 1988); type: functional, cell-based
[5] = target: Luciferin 4-monooxygenase (Photinus pyralis, UniProt P08659); test: Counter Screen for Luciferase-based Assay Positives. [Related pubchem assays: 620, 618, 411 ]
Luciferin 4-monooxygenase, sequence (P08659 whole entry): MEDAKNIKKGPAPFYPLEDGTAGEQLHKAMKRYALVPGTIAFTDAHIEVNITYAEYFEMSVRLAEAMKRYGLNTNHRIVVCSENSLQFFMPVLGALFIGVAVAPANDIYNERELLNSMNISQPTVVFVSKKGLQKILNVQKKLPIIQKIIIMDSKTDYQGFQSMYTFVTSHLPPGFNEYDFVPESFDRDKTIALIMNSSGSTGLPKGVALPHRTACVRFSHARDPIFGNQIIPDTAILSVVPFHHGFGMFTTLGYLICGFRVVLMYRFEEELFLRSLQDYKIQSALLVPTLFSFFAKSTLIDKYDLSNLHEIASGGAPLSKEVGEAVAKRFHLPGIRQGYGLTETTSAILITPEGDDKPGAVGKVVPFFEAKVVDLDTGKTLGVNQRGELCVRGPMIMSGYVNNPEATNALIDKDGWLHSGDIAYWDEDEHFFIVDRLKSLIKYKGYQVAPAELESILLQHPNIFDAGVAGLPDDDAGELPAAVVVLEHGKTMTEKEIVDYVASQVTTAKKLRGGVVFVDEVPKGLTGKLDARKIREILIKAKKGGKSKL

HT-1080 = test: HT1080 cell viability loss – fluorescence readout (AID 620); type: functional, cell-based; conditions: Homo sapiens
[6] = M. tuberculosis H37Rv growth inhibitors, H37Rv strain (AID 1626); type: functional
[7] = microbe, parasite or virus in culture; type: functional; conditions: Mycobacterium tuberculosis
[8] = Luminescent dose response cell-based high throughput screening assay for inhibitors of the Janus kinase 2 mutant JAK2V617F. [Related pubchem assays: 1446 (Primary screen.), 1521 (Confirmation assay.), 1486 (Counter screen.)]; type: functional
Protein RecA = target: T3, Protein RecA (Mycobacterium tuberculosis, UniProt P9WHJ3); test: Fluorescence Cell-Free Homogeneous Dose Retest to Identify Inhibitors of RecA-Intein Splicing Activity. [Related pubchem assays (depositor defined):AID2097, AID2223, AID489010, AID492950]; type: functional
T3 sequence (P9WHJ3 whole entry): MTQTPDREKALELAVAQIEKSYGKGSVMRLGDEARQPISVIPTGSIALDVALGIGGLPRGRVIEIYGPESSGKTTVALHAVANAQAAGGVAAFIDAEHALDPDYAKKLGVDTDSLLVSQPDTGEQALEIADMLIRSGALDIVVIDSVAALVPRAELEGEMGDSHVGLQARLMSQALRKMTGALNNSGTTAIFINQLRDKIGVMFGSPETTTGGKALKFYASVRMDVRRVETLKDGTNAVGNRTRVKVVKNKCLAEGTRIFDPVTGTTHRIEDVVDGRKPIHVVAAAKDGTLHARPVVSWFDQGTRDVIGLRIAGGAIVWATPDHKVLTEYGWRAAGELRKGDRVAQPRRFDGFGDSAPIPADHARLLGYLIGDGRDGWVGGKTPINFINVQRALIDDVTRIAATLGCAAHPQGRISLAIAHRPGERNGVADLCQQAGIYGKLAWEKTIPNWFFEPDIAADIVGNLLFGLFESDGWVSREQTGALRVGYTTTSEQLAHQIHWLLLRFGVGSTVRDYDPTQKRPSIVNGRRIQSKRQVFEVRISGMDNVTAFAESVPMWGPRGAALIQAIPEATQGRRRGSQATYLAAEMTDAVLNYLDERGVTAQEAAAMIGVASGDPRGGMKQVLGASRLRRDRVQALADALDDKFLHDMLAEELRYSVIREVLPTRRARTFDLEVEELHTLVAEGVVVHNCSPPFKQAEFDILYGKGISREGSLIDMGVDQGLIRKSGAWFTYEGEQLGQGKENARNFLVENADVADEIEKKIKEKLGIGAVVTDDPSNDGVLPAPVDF

[9] = target: T4, Microphthalmia-associated transcription factor (Homo sapiens, UniProt O75030); test: reducers of TRPM1 reporter luminescence, concentration series – cell-based, SK-MEL-5, cherry-picked, set 3, MITF inhibitor project, dose response (AID 493073); type: functional;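 further: SK-MEL-5 melanoma cells with luciferase driven by the MITF target TRPM1 promoter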
T4 sequence (O75030 whole entry): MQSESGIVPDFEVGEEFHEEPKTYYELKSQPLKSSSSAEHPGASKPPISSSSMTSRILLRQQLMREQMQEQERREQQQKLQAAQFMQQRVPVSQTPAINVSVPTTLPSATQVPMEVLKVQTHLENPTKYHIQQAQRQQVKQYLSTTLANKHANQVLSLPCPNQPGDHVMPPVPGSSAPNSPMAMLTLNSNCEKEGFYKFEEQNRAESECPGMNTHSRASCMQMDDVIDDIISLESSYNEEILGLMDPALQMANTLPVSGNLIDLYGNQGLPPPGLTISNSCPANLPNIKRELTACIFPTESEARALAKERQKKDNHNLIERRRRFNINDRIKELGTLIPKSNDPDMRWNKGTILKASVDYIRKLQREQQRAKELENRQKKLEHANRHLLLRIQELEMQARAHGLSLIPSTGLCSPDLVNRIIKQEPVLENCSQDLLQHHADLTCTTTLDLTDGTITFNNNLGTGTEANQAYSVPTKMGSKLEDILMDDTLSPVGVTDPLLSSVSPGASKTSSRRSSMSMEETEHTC

[10] = target: T5, Replicative DNA helicase DnaB (Mycobacterium tuberculosis, UniProt P9WMR3); test: DnaB intein splicing inhibitors, dose response, biochemical, cell-free fluorescence (AID 449749); type: functional
T5 sequence (P9WMR3 whole entry): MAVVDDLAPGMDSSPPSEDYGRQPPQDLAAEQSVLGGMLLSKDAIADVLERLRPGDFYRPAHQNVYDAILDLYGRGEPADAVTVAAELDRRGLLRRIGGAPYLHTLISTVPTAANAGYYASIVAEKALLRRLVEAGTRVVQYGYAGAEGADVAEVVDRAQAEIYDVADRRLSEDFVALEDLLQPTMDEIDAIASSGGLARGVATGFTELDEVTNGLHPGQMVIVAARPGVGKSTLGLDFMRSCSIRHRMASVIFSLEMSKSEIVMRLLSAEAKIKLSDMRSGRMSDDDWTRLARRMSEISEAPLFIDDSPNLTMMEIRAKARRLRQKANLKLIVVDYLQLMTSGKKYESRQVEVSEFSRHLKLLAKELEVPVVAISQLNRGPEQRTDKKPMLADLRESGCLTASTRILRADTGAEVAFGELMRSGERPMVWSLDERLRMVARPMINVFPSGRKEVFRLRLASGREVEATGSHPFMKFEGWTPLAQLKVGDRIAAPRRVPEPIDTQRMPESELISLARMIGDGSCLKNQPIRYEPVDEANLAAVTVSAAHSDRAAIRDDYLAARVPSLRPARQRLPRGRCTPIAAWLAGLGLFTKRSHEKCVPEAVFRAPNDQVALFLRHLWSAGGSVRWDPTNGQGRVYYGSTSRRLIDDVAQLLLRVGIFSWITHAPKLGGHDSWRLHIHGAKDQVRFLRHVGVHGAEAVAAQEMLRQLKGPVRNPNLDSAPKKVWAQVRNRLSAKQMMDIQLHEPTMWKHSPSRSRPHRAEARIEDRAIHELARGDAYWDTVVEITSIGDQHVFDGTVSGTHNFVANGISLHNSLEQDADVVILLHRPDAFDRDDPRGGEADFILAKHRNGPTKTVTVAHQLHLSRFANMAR

[11] = Trypanosoma cruzi growth suppression in host cells – NIH3T3 host cells, beta-gal luminescence, confirmation (AID 2044); type: functional, cell-based;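 further: intracellular parasites grown in NIH/3T3 mouse fibroblasts as host cells; luminescent beta-galactosidase reporter signal from transgenic T. cruzi replicating inside host cells; inhibitors lower the luminescence signal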
[12] = NIH3T3 cell viability loss – ATP luminescence, mouse fibroblasts, counter-screen, dose response (AID 2010); type: functional, cell-based;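 further: cells exposed to compound for about 90 hours before reading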
cells [13] = test: cells
[14] = target: T6, Corticotropin-releasing factor receptor 2/Corticotropin-releasing factor-binding protein (Homo sapiens, UniProt P24387+Q13324); test: activators of CRF receptor 2 with binding protein – uHTS hits, confirmation (AID 602473); type: functional; conditions: read-out: EC50_Mean
T6 sequence (Q13324 whole entry): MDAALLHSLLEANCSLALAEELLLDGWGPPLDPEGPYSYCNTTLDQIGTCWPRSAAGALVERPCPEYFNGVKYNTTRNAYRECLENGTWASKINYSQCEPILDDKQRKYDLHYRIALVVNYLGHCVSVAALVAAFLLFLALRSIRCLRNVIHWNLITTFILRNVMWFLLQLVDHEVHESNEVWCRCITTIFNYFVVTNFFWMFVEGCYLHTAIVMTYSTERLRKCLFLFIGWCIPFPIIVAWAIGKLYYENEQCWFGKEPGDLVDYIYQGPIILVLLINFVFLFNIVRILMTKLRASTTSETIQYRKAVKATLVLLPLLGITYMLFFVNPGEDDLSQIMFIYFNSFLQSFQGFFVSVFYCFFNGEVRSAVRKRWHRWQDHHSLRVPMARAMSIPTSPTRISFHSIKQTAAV
T6 sequence (P24387 whole entry): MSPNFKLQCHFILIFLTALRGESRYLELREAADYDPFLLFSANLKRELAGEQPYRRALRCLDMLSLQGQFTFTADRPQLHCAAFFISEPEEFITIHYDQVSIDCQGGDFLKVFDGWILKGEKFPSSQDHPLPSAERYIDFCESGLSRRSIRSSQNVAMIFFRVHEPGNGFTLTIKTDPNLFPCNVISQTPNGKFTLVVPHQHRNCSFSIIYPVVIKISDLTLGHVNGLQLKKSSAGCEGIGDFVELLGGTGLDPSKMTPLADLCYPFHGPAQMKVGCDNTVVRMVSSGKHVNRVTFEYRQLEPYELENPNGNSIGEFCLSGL

[15] = target: Voltage-gated inwardly rectifying potassium channel KCNH2 (Homo sapiens, UniProt Q12809); test: concentration-dependent hERG rescue from blockers – cell-based, thallium flux, dose response (AID 2121); type: ADME
Voltage-gated inwardly rectifying potassium channel KCNH2, sequence (Q12809 whole entry): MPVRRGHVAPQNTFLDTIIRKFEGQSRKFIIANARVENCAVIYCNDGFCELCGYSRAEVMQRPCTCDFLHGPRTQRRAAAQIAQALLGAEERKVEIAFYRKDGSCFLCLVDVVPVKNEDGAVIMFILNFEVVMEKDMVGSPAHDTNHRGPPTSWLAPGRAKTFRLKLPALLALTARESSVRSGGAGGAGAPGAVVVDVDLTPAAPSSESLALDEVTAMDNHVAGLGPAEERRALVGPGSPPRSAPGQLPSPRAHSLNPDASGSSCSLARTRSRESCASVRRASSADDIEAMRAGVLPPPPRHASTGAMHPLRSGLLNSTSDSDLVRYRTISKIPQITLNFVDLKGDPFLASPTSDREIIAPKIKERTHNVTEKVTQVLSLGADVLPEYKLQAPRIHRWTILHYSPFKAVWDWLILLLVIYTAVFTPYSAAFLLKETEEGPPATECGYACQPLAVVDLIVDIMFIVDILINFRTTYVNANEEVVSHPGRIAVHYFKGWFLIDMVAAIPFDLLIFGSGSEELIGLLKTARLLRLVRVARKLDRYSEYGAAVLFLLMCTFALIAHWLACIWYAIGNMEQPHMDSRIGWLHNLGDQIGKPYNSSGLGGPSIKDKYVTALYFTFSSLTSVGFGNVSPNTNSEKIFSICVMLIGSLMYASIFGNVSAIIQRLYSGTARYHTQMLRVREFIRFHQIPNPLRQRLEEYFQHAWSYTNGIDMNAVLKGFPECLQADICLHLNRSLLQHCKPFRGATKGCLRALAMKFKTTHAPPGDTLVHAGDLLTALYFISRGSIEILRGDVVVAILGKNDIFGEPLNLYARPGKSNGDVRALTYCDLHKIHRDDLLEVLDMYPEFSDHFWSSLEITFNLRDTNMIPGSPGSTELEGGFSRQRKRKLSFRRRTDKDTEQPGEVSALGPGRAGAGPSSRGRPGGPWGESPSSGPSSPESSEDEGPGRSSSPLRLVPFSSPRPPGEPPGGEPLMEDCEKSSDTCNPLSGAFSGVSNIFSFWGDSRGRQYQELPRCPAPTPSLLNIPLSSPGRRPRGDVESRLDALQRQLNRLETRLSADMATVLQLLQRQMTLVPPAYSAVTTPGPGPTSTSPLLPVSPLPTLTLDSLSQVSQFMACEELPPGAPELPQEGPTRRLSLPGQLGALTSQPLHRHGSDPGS

Vero = test: mammalian cell viability reduction – secondary assay, cytotoxicity control for West Nile virus antiviral project, dose response (AID 1650); type: functional; conditions: Chlorocebus sabaeus
[16] = viability of uninfected HEp-2 cells – cell-based, HTS, cytotoxicity control for RSV inhibitor project, dose response (AID 2410); type: functional; conditions: human respiratory syncytial virus
[17] = target: T6, Corticotropin-releasing factor receptor 2/Corticotropin-releasing factor-binding protein; test: Dose Response confirmation of uHTS hits for small molecule antagonists of the CRF-binding protein and CRF-R2 receptor complex.; type: functional; conditions: read-out: IC50_Mean
cells [18] = test: cells; remark: listed apart in the source

T1 sequence (Q92731 whole entry): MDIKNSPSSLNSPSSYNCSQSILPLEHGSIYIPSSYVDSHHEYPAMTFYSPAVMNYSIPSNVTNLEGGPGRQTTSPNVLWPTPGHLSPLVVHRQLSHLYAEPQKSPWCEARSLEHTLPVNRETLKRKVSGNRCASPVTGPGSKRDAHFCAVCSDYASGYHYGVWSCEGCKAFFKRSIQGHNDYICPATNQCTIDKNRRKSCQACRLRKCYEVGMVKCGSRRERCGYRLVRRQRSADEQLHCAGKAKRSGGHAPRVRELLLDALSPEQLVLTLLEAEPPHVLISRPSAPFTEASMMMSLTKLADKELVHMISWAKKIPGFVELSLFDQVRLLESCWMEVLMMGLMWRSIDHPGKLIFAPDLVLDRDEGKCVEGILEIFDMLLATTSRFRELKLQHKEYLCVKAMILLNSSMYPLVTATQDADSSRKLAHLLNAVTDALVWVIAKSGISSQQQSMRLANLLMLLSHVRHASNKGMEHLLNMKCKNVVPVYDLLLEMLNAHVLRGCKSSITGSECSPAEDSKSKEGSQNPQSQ

With `CCS(=O)(=O)N1Cc2ccccc2CC1C(=O)N1CCN(c2cccc(C)c2C)CC1` (centres undefined) the IC50 (Estrogen receptor beta [1]) was > 50 µM (not active), the IC50 (Bcl-2-like protein 10) was 80 µM (inactive) and the IC50 (Estrogen receptor beta [2]) was 2.96 µM (not active).

For `CNC(=O)c1c(NC(=O)c2nc3ccccc3s2)sc2c1CCC2`, the IC50 (Estrogen receptor beta [1]) was > 50 µM (not active) and the IC50 (Estrogen receptor beta [2]) was < 0.023 µM (not active).

For `Cn1ccnc1SCc1cn2cc(Br)ccc2n1`, the EC50 [3] was 7.92 µM (active), the EC50 [4] was 7.22 µM (inconclusive) and the EC50 [5] was 38.1 µM (active). The EC50 (HT-1080) was > 50 µM (not active).

With `O=C(CCc1nc(-c2cccs2)no1)Nc1cnc2ccccc2c1` the IC50 [6] was > 100 µM (active).

In the case of `Cc1nccc(-c2ccc(-n3c(C)ccc3C)cc2)n1`, the IC50 [6] is reported as > 100 µM (active).

In the case of `CC1CCCC(NC(=O)NC(=O)CCl)C1C` (centres undefined), the CC50 [7] is reported as 10.4 µM (active), the IC50 [8] is reported as 1.02 µM (active) and the EC50 (Protein RecA) is reported as 6.19 µM (active). For the same compound, the AC50 [9] was 12.4 µM (active) and the AC50 [10] was 23.2 µM (active).

With `CCc1c(C)c(C#N)c2nc3ccccc3n2c1NCCN(C)C` the EC50 [11] was < 0.1 µM (active), the EC50 [12] was > 30 µM (not active) and the EC50 (cells [13]) was 0.014 µM (active).

In the case of `CCOc1ccc2nc(/N=C/c3nc(-c4ccc(Br)cc4)oc3O)sc2c1`, the EC50 [14] is reported as > 53 µM (inactive) and the EC50 [15] is reported as 0.16 µM (active).

With `Cc1cc(=O)oc2c1ccc1oc(/C(=N/O)c3ccccc3)c(C)c12` the CC50 (Vero) was 18.1 µM (active), the CC50 [16] was < 0.1 µM (active) and the EC50 [14] was > 53 µM (inactive). The IC50 [17] was 24.5 µM (active) and the IC50 (cells [18]) was 18.3 µM (active).

For `O=c1cnn([C@@H]2O[C@H](CO)[C@@H](O)[C@H]2O)c(=O)[nH]1` [6-AZAURIDINE], the IC50 [8] was 2.32 µM (active), the CC50 [16] was 11.9 µM (active) and the IC50 (cells [18]) was 2.28 µM (active).
